Where two headings read alike, the source gives them in different places.
What was measured:
hN neuronal α4β2 = target: T1, hN neuronal α4β2 (Homo sapiens, UniProt P17787+P43681); test: hN neuronal α4β2 binding, [3H]cystine in SH-SY5Y cells (Eurofins Cerep)
T1 construct: host or cells: SH-SY5Y cells

hH2R = target: T2, hH2R (Homo sapiens, UniProt P25021); test: hH2R radioligand binding, [125I]APT in CHO cells (Eurofins Cerep)
T2 construct: host or cells: CHO cells

hH4R = target: hH4R; design: method as in Lazewska et al. (2020) and Canale et al. (2021); details: Sf9 cells; [3H]histamine; ref Lazewska et al. (2020) and Canale et al. (2021); cited from earlier work
adrenergic α2 receptor = adrenergic α2 receptor binding, [3H]clonidine in rat cerebral cortex; details: protocol of Canale et al., 2021
[1] = design: method as in Canale et al., 2021; details: ref Canale et al., 2021; cited from earlier work
[2] = test system: MES-induced seizures in mice; test: Maximal electroshock (MES)-induced seizure, duration of tonic hind limb extension (THLE); format: in vivo, C57BL/6J mice; details: for protection compared with reference drug VPA: DL76 60 mg/kg i.p. vs VPA 300 mg/kg; for mean difference in THLE: DL76 60 mg/kg vs saline-, DL76 7.5, 15, 30 mg/kg groups, p < 0.05
Description: As previously described and with a slight modification in the intensity applied, seizures were elicited in mice with a 50-Hz alternating current of 120 mA intensity ([Kaminski et al., 2015]; [Song et al., 2020]; [Xiao et al., 2021]; [Hua et al., 2023]). The current was applied through ear electrodes for 0.2 s. Protection against the spread of MES-induced convulsion was defined as the abolition of the tonic hind limb extension (THLE) component of the seizure ([Kaminski et al., 2015]; [Song et al., 2020]; [Xiao et al., 2021]; [Hua et al., 2023]). The animals were divided into the following experimental groups, with eight mice in each: the control group injected with saline, the positive control group injected with 300 mg/kg of VPA (the minimal dose of VPA that protected animals against the spread of MES-induced convulsions without mortality in mice) ([Sadek et al., 2015]; [Bastaki et al., 2018]), and four groups that were administered the test compound DL76 at doses of 7.5 mg/kg, 15 mg/kg, 30 mg/kg, or 60 mg/kg. All drugs were administered 30–45 min before the MES challenge. In a further group of eight mice, the most promising and protective dose of DL76 (60 mg/kg, i.p.) was co-injected with RAM (10 mg/kg, i.p.), 30 min apart and 15 min prior to the MES test. Protection against the spread of MES-induced convulsion was defined as the abolition of the THLE component of the convulsion ([Sadek et al., 2015]; [Alachkar et al., 2018]; [Bastaki et al., 2018]).
(§1) Statistical analyses employed SPSS 26.0 (IBM Middle East, Dubai, UAE). Data were presented as means ± SEM. […] Fetal abnormality data were presented as counts and percentages. Fisher’s exact test compared the percentages of abnormalities between the control group (saline) and the different dose groups. All tests were two-tailed, and significance was set at p < 0.05.

hH3R = target: hH3R; design: method as in Lazewska et al. (2006); details: CHO K1 cells; [125I]Iodoproxyfan binding assay; ref Lazewska et al. (2006); cited from earlier work
several cell lines = test system: several cell lines; design: method as in Canale et al., 2021; details: ref Canale et al., 2021; cited from earlier work
[3] = design: method as in Szafarz et al., 2015; details: ref Szafarz et al., 2015, cited from earlier work
hH1R = target: T3, hH1R (Homo sapiens, UniProt P35367); test: hH1R radioligand binding, [3H]pyrilamine in CHO K1 cells; details: protocol of Lazewska et al., 2017
T3 construct: expressed in transfected cells; host or cells: CHO K1 cells

C57/B6 mouse embryos = test: Skeletal malformations (double staining of fetuses); format: in vivo, C57BL/6J mice
Description: After isolating fetuses from viscera and skin, they underwent a fat-removal process by immersion in acetone for 1–3 days. The resulting transparent specimens underwent a sequence of glycerin solutions (50% and 80%) before being finally stored in 100% glycerin for observation of malformations using a stereo dissecting microscope ([McLeod, 1980]; [Sterz and Lehmann, 1985]; [Abdulrazzaq et al., 1997]; [Bass et al., 2020]). Following this, specimens were processed and stained with Alizarin Red-S and Alcian blue ([McLeod, 1980]; [Sterz and Lehmann, 1985]; [Abdulrazzaq et al., 1997]; [Bass et al., 2020]) to identify bone and cartilage deformities.
as §1

T2 sequence (P25021 whole entry): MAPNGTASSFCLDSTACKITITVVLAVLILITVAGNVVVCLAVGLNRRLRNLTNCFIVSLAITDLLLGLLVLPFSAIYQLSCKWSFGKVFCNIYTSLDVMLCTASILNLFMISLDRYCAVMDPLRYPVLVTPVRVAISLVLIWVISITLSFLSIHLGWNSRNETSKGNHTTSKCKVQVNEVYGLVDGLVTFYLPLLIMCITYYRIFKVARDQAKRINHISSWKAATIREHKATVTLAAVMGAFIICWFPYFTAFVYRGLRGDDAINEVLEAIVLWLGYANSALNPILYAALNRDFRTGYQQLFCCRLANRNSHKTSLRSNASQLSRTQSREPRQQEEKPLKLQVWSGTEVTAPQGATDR
T3 sequence (P35367 whole entry): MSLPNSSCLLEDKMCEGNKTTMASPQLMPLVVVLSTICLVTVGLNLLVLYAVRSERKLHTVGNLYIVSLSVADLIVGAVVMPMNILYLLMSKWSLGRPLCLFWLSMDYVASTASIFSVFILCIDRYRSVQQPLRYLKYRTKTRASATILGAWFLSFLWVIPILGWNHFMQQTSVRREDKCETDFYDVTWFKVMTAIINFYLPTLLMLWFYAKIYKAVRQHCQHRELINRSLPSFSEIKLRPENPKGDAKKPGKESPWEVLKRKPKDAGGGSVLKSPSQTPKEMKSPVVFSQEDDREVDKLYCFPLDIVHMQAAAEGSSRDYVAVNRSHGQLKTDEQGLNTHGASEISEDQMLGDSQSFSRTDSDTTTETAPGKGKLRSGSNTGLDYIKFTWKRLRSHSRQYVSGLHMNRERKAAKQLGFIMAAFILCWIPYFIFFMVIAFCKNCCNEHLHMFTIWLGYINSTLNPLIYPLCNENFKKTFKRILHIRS
T1 sequence (P43681 29-627 limits assumed): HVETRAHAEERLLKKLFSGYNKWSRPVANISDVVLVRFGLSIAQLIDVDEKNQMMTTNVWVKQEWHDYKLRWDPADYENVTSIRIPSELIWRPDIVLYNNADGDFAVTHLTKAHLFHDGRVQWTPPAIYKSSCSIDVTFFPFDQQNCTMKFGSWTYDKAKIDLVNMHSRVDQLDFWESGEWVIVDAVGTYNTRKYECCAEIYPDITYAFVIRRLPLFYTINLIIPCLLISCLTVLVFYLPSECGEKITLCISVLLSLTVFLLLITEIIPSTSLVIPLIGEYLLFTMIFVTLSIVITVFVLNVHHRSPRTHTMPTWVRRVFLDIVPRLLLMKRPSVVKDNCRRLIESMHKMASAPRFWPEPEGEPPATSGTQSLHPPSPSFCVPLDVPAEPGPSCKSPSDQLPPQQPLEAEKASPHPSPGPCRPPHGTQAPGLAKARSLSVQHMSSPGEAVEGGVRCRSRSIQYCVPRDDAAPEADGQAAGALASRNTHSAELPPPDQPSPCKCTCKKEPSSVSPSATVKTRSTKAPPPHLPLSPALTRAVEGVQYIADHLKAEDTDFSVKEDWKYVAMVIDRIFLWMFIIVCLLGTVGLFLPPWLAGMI
T1 sequence (P17787 26-502): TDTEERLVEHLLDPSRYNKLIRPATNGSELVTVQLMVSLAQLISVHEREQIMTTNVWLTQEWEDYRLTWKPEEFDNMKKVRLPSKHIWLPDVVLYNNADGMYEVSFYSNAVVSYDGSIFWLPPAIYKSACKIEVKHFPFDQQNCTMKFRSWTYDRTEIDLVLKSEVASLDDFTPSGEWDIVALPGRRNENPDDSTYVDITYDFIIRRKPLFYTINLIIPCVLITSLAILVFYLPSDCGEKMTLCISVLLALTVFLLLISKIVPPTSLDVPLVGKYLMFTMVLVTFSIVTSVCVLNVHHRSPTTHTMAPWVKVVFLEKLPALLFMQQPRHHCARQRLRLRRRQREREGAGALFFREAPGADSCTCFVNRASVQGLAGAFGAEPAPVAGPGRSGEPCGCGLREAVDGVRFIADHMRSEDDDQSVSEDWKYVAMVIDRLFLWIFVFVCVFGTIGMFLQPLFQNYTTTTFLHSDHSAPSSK

CC(C)(C)c1ccc(OCCCN2CCCCC2)cc1 [DL76, 1-(3-(4-tert-butyl-phenoxy)propyl) piperidine]
inhibition at 1 µM (hN neuronal α4β2): 3% | inhibition at 1 µM (hH2R): 2.8% | Ki (hH4R): 66000 nM | Ki (adrenergic α2 receptor): > 5000 nM | antiparkinsonian effects [1]: antiparkinsonian effects | difference of protective effects between male and female mice ([2]; DL76 7.5, 15, 30 and 60 mg/kg i.p., p = 0.70, 0.685, 0.151, 0.398): no significant differences | THLE compared with reference drug VPA (300 mg/kg, i.p.) ([2]; both sexes of adult mice, DL76 30 mg/kg and 60 mg/kg): no significant differences | THLE values compared with VPA ([2]; both sexes of adult mice, lower doses of DL76 7.5 mg/kg and 15 mg/kg i.p.): significant difference | mean difference, saline + saline vs. DL76 + RAM ([2]; female adult mice, DL76 60 mg/kg + RAM 10 mg/kg i.p., p = 0.17): 1.33 | protection after co-administration of RAM ([2]; female adult mice, DL76 60 mg/kg i.p. + RAM 10 mg/kg i.p. 15 min before MES): abrogated | protection compared with reference drug VPA ([2]; female adult mice, p = 0.72): comparable | mean difference in THLE ([2]; female adult mice, 2nd of three printed values): 10.63 s | mean difference in THLE ([2]; female adult mice, 3rd of three printed values): 3.13 s | protection against MES-induced convulsions ([2]; female adult mice, DL76 7.5–60 mg/kg i.p.): significantly protected | protection against MES-induced seizures ([2]; female and male mice, 7.5, 15, 30 and 60 mg/kg i.p., acute): significant and dose-dependent protection | mean difference of THLE, saline vs. DL76+RAM ([2]; male adult mice, DL76 60 mg/kg + RAM 10 mg/kg i.p., p = 0.094): 2.5 s | protection after co-injection with H3R agonist RAM ([2]; male adult mice, DL76 60 mg/kg i.p. + RAM 10 mg/kg i.p. 15 min before MES): reversed | mean difference of THLE ([2]; male adult mice, DL76 60 mg/kg i.p. vs DL76 (7.5 mg/kg)-treated group): 7.25 s | mean difference of THLE ([2]; male adult mice, DL76 60 mg/kg i.p. vs DL76 (15 mg/kg)-treated group): 8.88 s | mean difference of THLE ([2]; male adult mice, DL76 60 mg/kg i.p. vs DL76 (30 mg/kg)-treated group): 10.75 s | protection compared with reference drug VPA ([2]; male adult mice, p = 1.000): comparable | protective effect on MES-induced convulsions vs saline ([2]; male adult mice, all doses 7.5, 15, 30, 60 mg/kg i.p., all p <0.0001): substantial protective effects | Ki (hH3R): 22 nM | in vitro toxicity (several cell lines): without inducing in vitro toxicity | AUC0→∞ ([3]; dose 3 mg/kg): 298 ng◦h/mL | C0 ([3]; dose 3 mg/kg): 564 ng/mL | AUC0→∞ ([3]; dose 6 mg/kg): 685 ng◦h/mL | C0 ([3]; dose 6 mg/kg): 653 ng/mL | concentrations in cortex, hippocampus and striatum higher than in whole brain tissues ([3]; experimental animals): 44% | Ki (hH1R): 849 ± 67 nM | femur length (C57/B6 mouse embryos; 7.5 mg/kg and 60 mg/kg groups): significantly decreased | tibia and fibula lengths vs controls (C57/B6 mouse embryos; 7.5 mg/kg, 30 mg/kg and 60 mg/kg groups): significantly decreased | mean crown-to-rump length vs control groups (C57/B6 mouse embryos; 7.5 mg/kg-, 30 mg/kg- and 60 mg/kg-treated groups): decreased significantly | humerus and ulna lengths (C57/B6 mouse embryos; 30 mg/kg and 60 mg/kg groups): reduced | radius length (C57/B6 mouse embryos; 30 mg/kg group only): significant decrease | femur length (C57/B6 mouse embryos; 30 mg/kg group, p = 0.06): non-significant decrease | incidence of lumbar ribs vs saline-treated control (C57/B6 mouse embryos; DL76-treated group): not significantly different | fifth sternebrium, absence or occurrence of hypoplasia, vs control (C57/B6 mouse embryos; DL76-treated groups): no significant difference | skull or facial bones (C57/B6 mouse embryos; all groups): No significant differences | vertebrae: number of centra or number of unossified/hypoplastic bodies (C57/B6 mouse embryos; all the DL-76-treated groups): no differences | crown–rump length and lengths of the long bones of the extremities (C57/B6 mouse embryos; higher doses of 30 mg/kg, 60 mg/kg and 15 mg/kg × 3): seemed to be affected

— paper PMC11188305, “Reproductive and fetal toxicity studies of histamine H3 receptor antagonist DL76 used in mice to prevent maximal electroshock-induced seizure” (Frontiers in Pharmacology, 2024)
